US8173600B2, “Caspase-2 inhibitors and their biological applications” (Chiesi Farmaceutici S.p.A., priority 2004, dated 2012)
Where two headings read alike, the source gives them in different places. Peptide text beside a SMILES is read from it. * marks the point of attachment. X1 = COC(=O)C[C@H](N*)C(=O)COc1c(F)cccc1F; Quinaldoyl = O=C(c1ccc2ccccc2n1)*

Legend:
primary cortical neurons = tested on: primary cortical neurons
Method: Primary cortical neurons were cultured from E14 SWISS mice embryos (Janvier). Mice were sacrificed by cervical dislocation and embryos were removed by caesarean. Cerebral cortices were extracted and tissues mechanically triturated 15 times in L15 medium (Gibco BRL) by using 1000 μl tips (Eppendorf), then debris were removed, and the cell suspension was centrifuged at 850 rpm for 10 min. […]
5.1.3 Apoptosis assays. Analysis was performed on previously stained adherent neurons by fluorescence microscopy (FM) (DM IRB inverted fluorescence microscope, Leica, Rueil-malmaison, France) equipped with a 100 W mercury short arc lamp and a X 40 N PLAN L objective or a water immersion X 100 N PLAN objective. Usually, quantitative studies were performed by both FM on approximately 200-600 cells/field by scoring 5-10 random-selected fields per experiment and flow cytometry (FC) for higher sample throughput. […] Activated caspase-2 was detected using specific FAM-conjugated peptides (called FLICA: CaspaTag™ fluorescein Caspase Activity Kits, Q-Biogen, Illkirch, France; ApoFluor™ Caspase Detection Kits, MP BioMedicals): FAM-VDVAD (SEQ ID NO:9)-fmk. Viability loss was assessed by 7-AAD (Sigma) incorporation.

[1] = tested on: 32 others related-proteases or enzymes involved in signal transduction and neuronal metabolism, nitric oxide pathway or prostanglandin metabolism; details: 1 μM, n=2
[2] = tested on: neonatal ischemic brain injury
non-ischemic rats = details: rat, in vivo
Method: The selective loss of vulnerable cells and Qco-VDVAD-dfp(SEQ ID NO:1)'s effects (intracerebroventricular (ICV) administrated) have been evaluated at 72 h. Rats were sacrificed and brain fixed by trans-cardiac perfusion with paraformaldehyde. Frontal brain slices (25 μm) were strained by Cresyl-Violet or co-stained by Hoechst 33342 and Fluorojade B to assess cell death in the hippocampus and in the cortex. Cresyl-Violet is a pink-red dye that labels cytoplamic body Nissl (endoplasmic reticulum structures) and nuclei in living cells thus resulting in pale or absence of staining in dying cells. Fluoro JadeB (green fluorescence) intake is possible only in cells which have permeable plasma membrane, thus more caracteristic of dying cells. Hoechst 33342 (blue fluorescence) label nuclei all all cells and allows to appreciate nuclear morphology changes during cell death.
Cells were counted at the level of canula, as well as 650 μm and 780 μm after the cannula (antero-posterior axis) in the left brain hemisphere. Cells are counted in three successives slices at such levels in the hippocampus (CA1, CA3, girus dentus) and cortex. Cresyl-Violet stained slices were observed under white light (Nikon Eclipse E 800M microscope equipped with ×40 et ×20 objectives and LEICA IM50 software). […]

caspase-2 = caspase-2 (Rattus norvegicus, UniProt P55215); details: 5 mg/kg i.p., sacrificed at 24 hrs, brain homogenates
caspase-2, sequence (P55215 whole entry): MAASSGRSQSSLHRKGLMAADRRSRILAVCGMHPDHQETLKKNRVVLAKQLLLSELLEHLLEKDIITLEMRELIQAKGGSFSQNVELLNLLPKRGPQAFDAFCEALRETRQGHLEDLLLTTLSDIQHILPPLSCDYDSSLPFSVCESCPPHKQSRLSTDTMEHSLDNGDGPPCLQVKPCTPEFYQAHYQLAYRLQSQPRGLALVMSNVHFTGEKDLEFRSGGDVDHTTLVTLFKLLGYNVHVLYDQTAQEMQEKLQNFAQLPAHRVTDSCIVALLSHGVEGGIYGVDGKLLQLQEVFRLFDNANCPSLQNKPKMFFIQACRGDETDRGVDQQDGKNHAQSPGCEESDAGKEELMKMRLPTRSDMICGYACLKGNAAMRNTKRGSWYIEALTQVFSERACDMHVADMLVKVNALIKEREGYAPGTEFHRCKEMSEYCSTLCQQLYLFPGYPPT
Method: Brain hemispheres were lysed in 10 mM Hepes, 5 mM MgCl2, 42 mM KCl, 1 mM DTT, 0.5% CHAPS supplemented by complete protease inhibitors cocktail (Roche, Meylan, France) by using a manual potter on ice. Homogenates were centrifuged at 10000 g/4° C. for 10 min before keeping surnageant. Protein concentration was determined using BCA test. Proteins (50 μg) were separated on 12.5% polyacrylamide gels and transferred to PVDF membranes (Amersham). […] The monoclonal anti-mouse caspase-2 antibody (52 kDa; 11B4, Alexis Biochemicals) was used at a 1:1000 dilution; actin (42 kDa; Sigma; antibody diluted 1:5000) is used as an equal loading control.
Caspase-2 activity (100 μg protein brain sample) was assessed in 100 μl assay buffer (50 mM HEPES, pH 7.4, 100 mM NaCl, 0.1% CHAPS, 10 mM DTT, 1 mM EDTA, 10% glycerol). The cleavage of 50 μM VDVAD(SEQ ID NO:9)-AMC by recombinant caspase-2 was measured after 2 h at 37° C. on a fluorescence microplate reader by monitoring the fluorescence emission at 510 nm upon excitation at 405 nm.
Animals were sacrified at 24 hrs. Brain homogenates were subjected to caspase-2 activity assay and western blot analysis. IL: ipsilateral injured hemisphere, CL: contralateral unlesionned hemisphere.

[3] = after freeze/thawing of aqueous solution
Description: Stability was followed throughout 7 days at RT or after freeze/thawing of aqueous solution comprising various 10-100% of excipients by using HPLC (Varian ProStar 410 equipped of Nucleosile C18 (8 μm, 3.9×150 mm) with detection at 214 nm).

[4] = tested on: global cerebral ischemia (4VO); details: 4VO ischemic treated rats versus untreated rats
Method: Corporal temperature was measured during churgical procedure at day 1 (from anesthesia to stepl (vertebral electrocauterisation and cannula putting up) and step 2 (coratid isolation) of chirurgical procedure during. Corporal temperature was also measured 0, 10, 20 minutes after the beginning of ischemia, at day 2. Temperature was measured 24, 48, 72 H post-ischemia and before final anesthesia for perfusion at day 5. Behavioural studies (feeding, spontaneous activity and reactivity) were performed and evaluated by scoring.
Feeding: observation of stomacal contains at day 5
If refeeding=1; If no refeeding=0
Vivacity=1; More or less vivacious=0.5; No or poor vivacity=0.
Reactivity: animal are sensitive and reactive to noise and move to the origin of the noise.
If curious=1; If relatively curious=0.5; If not very curious=0.

[5] = tested on: global cerebral ischemia (4VO); details: icv, 72 h post-ischemia
Method: Global cerebral ischemia was induced by four-vessel occlusion (4VO) according a Pulsinelli's derived method (Pulsinelli et al., 1982; Pulsinelli and Buchman, 1988) in young-adult rats (males Wistar aged of 10-12 weeks, 320 g+/−10 g; Janvier). The first day, head of anesthetised rats was positionned in stereotaxic ear bars and tilted down at approximatively 30° to the horizontal. After a midline incision at the level of cervical spine, both vertebral arteries were exposed under microscope and then coagulated by electocautery needle through the alar foramina at the level of first cervical vertebra. Both common carotides were then exposed 24 h later and clamped for 20-30 min (rats fell in the coma when electrocautherisation of both vertebral arteries have been well performed). Carotid arteries were then declamped to allow blood flow reperfusion. […] Rats were let in their cage with waer et food ad libitum.
Rats were sacrificed and brain fixed by trans-cardiac perfusion with paraformaldehyde. Frontal brain slices (25 μm) were strained by Cresyl-Violet or co-stained by Hoechst 33342 and Fluorojade B to assess cell death in the hippocampus and in the cortex. […] Fluoro JadeB (green fluorescence) intake is possible only in cells which have permeable plasma membrane, thus more caracteristic of dying cells. Hoechst 33342 (blue fluorescence) label nuclei all all cells and allows to appreciate nuclear morphology changes during cell death.
Cells were counted at the level of canula, as well as 650 μm and 780 μm after the cannula (antero-posterior axis) in the left brain hemisphere. Cells are counted in three successives slices at such levels in the hippocampus (CA1, CA3, girus dentus) and cortex. […] Both Fluoro Jade B and Hoechst stained slices were observed under a Leica DMIRB inverted fluorescence microscope equiped with ×40 objective and LEICA IM1000/Qfluorobase software (BP 340-80 excitation filter combined with LP 425 emission filter for Hoechst; BP 480/40 excitation filter combined with BP 515-560 emission filter for Fluoro Jade B).

Structure (SMILES): COC(=O)C[C@H](NC(=O)[C@H](C)NC(=O)[C@@H](NC(=O)[C@H](CC(=O)OC)NC(=O)[C@@H](NC(=O)c1ccc2ccccc2n1)C(C)C)C(C)C)C(=O)COc1c(F)cccc1F [Qco-VDVAD-dfp, 2-Quinolinylcarbonyl-L-Valinyl-L-Aspartyl (methyl ester)-L-Valinyl-L-Alanyl-L-Aspartyl (methyl ester) 2,6-difluorophenyl ester] (Quinaldoyl-VD(OMe)VA-X1)
- caspase-2 activity in serum-deprived cortical neurons (primary cortical neurons; 24 h serum deprivation): prevents caspase-2 activity
- cell permeance (primary cortical neurons; inferred from prevention of caspase-2 activity in cortical neuron cultures): cell-permeant
- cross reactivity against 32 other related proteases or enzymes [1]: no cross reactivity
- infarct volume (%), mean ([2]; 0.1 mg/kg i.p. 1 h after MCAO, 48 hrs, control 22.64±1.6%): 9.95±2.8%
- reduction in infarct volume ([2]; 0.1 mg/kg i.p. single dose 1 h after MCAO / ischemic onset, 48 hrs, n=19): 44%
- infarct volume of the four animals with intermediate protection ([2]; 5 mg/kg i.p. before ischemic onset, 4 of 12 animals): 16.5±1.32%
- infarct volume, median of the eight animals with complete protection or very marked smaller infarct ([2]; 5 mg/kg i.p. before ischemic onset, 8 of 12 animals): 0.5%
- infarct volume (% damage of ipsilateral hemisphere), mean ([2]; 5 mg/kg i.p. before ischemic onset, 48 hrs, control 22.1±1.4%): 5.7±2.3%
- infarct volume, median ([2]; 5 mg/kg i.p. before ischemic onset, all 12 animals, control median=21): 0.5
- reduction in infarct volume ([2]; 5 mg/kg i.p. single dose 5-15 min before ischemic onset, 48 hrs, n=12): 74%
- terminal transferase dUTP nick end labeling (TUNEL) ([2]; ipsilateral cortex of treated animals): significantly decreased
- cell death in hippocampus or cortex of non-ischemic rats (non-ischemic rats): < 10%
- topical toxicity (non-ischemic rats): not topically tokic
- caspase-2 activity in brain of ischemic rat pups (caspase-2): inhibited caspase-2 activity
- caspase-2 processing in brain of ischemic rat pups (western blot) (caspase-2): inhibited caspase-2 activity as well as caspase-2 processing
- degradation after freeze/thawing (HPLC) [3]: No degradation
- general behaviour scoring (feeding, spontaneous activity, reactivity) [4]: better scoring
- Cresyl-violet staining intensity in CA1 [5]: partially restored
- abnormal nuclei in CA1 (Hoechst) ([5]; versus ischemic rats): less abnormal nuclei
- cells incorporating Fluorojade B in CA1 ([5]; ischemic rats 50-60%): 10-20%
